# Measurements taken from patent publication US10023570B2 (Array BioPharma, Inc., priority 2015, dated 2018).
# Target: human KDR protein in HEK-293 cells (Homo sapiens (Human), UniProt P35968)
# Assay: KDR Cell Assay (phospho-KDR in HEK-293 cells expressing inducible KDR)
# Type: cell-based
# Details: pKDR Cell HEK 10% FBS IC50, HEK-293 cells expressing inducible KDR, VEGF stimulated
# In short: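 HEK-293 cells with inducible human KDR were treated with compound for 1 h in DMEM (0.25% DMSO final), then lysed. Phospho-KDR was quantified by Meso Scale immunoassay, expressed as percent of control, and IC50 taken where a 4-parameter logistic fit crossed 50 POC.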
# Sequence of human KDR protein in HEK-293 cells (P35968 20-1356): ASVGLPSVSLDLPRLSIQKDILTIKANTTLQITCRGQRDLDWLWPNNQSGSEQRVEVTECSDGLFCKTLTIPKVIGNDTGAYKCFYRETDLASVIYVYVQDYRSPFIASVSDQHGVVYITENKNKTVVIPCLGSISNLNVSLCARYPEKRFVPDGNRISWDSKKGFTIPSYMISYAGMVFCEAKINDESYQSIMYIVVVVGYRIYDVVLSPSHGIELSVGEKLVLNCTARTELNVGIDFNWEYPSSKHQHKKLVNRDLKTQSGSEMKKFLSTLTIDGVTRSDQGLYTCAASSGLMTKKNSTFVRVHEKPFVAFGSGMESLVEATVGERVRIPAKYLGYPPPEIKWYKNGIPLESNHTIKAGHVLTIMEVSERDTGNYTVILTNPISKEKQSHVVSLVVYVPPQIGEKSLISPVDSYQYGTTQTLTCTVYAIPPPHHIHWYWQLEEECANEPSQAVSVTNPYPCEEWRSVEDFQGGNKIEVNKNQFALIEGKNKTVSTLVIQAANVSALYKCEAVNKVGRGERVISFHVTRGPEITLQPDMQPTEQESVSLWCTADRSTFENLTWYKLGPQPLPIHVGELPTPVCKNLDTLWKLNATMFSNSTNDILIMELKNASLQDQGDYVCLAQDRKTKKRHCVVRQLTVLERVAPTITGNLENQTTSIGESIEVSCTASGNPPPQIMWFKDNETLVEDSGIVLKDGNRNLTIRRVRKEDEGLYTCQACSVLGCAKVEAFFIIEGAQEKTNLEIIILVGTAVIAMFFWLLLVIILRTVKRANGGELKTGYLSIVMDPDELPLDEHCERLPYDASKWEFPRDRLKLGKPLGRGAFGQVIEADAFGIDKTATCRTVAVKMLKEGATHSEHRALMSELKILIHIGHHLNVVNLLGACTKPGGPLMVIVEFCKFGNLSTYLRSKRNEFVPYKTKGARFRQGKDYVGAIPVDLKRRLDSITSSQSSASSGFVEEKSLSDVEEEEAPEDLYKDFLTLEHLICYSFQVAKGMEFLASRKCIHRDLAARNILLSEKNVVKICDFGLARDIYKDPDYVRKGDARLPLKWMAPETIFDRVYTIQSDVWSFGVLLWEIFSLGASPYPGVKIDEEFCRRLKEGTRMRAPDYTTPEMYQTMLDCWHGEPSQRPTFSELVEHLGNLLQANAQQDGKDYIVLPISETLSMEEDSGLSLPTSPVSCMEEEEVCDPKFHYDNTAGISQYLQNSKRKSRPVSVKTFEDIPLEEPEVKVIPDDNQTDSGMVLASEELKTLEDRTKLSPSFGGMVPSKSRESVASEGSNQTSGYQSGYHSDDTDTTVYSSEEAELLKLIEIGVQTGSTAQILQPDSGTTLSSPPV
row,IC50,SMILES
1,791 nM,"Cn1cc(-c2cc(-c3ccc(N4CCN(Cc5cncc(Cl)c5)CC4)nc3)c3c(C#N)cnn3c2)cn1 [Example 430, 4-(6-(4-((5-chloropyridin-3-yl)methyl)piperazin-1-yl)pyridin-3-yl)-6-(1-methyl-1H-pyrazol-4-yl)pyrazolo[1,5-a]pyridine-3-carbonitrile]"
2,671 nM,"Cn1cc(-c2cc(-c3ccc(C4CCCN(Cc5ccccc5)C4)nc3)c3c(C#N)cnn3c2)cn1 (stereo not drawn) [Example 581, 4-(6-(1-benzylpiperidin-3-yl)pyridine-3-yl)-6-(1-methyl-1H-pyrazol-4-yl)pyrazolo[1,5-a]pyridine-3-carbonitrile]"
3,490 nM,"Cn1cc(-c2cc(-c3ccc(N4CCN(CCc5ccccn5)CC4)nc3)c3c(C#N)cnn3c2)cn1 [Example 395, 6-(1-methyl-1H-pyrazol-4-yl)-4-(6-(4-(2-(pyridine-2-yl)ethyl)piperazin-1-yl)pyridin-3-yl)pyrazolo[1,5-a]pyridine-3-carbonitrile]"

# The next lines start with the compound.
row,SMILES,IC50
1,"Cn1cc(-c2cc(-c3ccc(N4CCN(Cc5cc(F)cc(F)c5)CC4)nc3)c3c(C#N)cnn3c2)cn1 [Example 447, 4-(6-(4-(3,5-difluorobenzyl)piperazin-1-yl)pyridin-3-yl)-6-(1-methyl-1H-pyrazol-4-yl)pyrazolo[1,5-a]pyridine-3-carbonitrile]",668 nM
2,"Cc1cncc(CN2CCN(c3ccc(-c4cc(-c5cnn(C)c5)cn5ncc(C#N)c45)cn3)CC2)n1 [Example 431, 6-(1-methyl-1H-pyrazol-4-yl)-4-(6-(4-((6-methylpyrazin-2-yl)methyl)piperazin-l-yl)pyridin-3-yl)pyrazolo[1,5-a]pyridine-3-carbonitrile]",1500 nM
3,"COc1ccc(CN2CCN(c3ccc(-c4cc(-c5cnn(C)c5)cn5ncc(C#N)c45)cn3)CC2)cn1 [Example 474, 4-(6-(4-((6-methoxypyridin-3-yl)methyl)piperazin-1-yl)pyridin-3-yl)-6-(1-methyl-1H-pyrazol-4-yl)pyrazolo[1,5-a]pyridine-3-carbonitrile]",305 nM
4,Cn1cc(-c2cc(-c3ccc(N4CCN(Cc5cnccn5)CC4)nc3)c3c(C#N)cnn3c2)cn1 [Example 453],1680 nM

# Same assay, conditions: pKDR Cell HEK 10% FBS IC50, HEK-293 cells expressing inducible KDR, VEGF stimulated, 10% FBS
row,IC50,SMILES
1,277 nM,"Cn1cc(-c2cc(-c3ccc(N4CCC(N5CC[C@H](O)C5=O)CC4)nc3)c3c(C#N)cnn3c2)cn1 [Example 190, (S)-4-(6-(4-(3-hydroxy-2-oxopyrrolidin-1-yl)piperidin-1-yl)pyridin-3-yl)-6-(1-methyl-1H-pyrazol-4-yl)pyrazolo[1,5-a]pyridine-3-carbonitrile]"
2,1200 nM,"CC(C)[C@@H](O)C(=O)N1CCC2(CCN(c3ccc(-c4cc(-c5cnn(C)c5)cn5ncc(C#N)c45)cn3)CC2)C1 [Example 206, (R)-4-(6-(2-(2-hydroxy-3-methylbutanoyl)-2,8-diazaspiro[4.5]decan-8-yl)pyridin-3-yl)-6-(1-methyl-1H-pyrazol-4-yl)pyrazolo[1,5-a]pyridine-3-carbonitrile]"
3,1960 nM,"COC[C@@H]1CCCN1C(=O)N1CCN(c2ccc(-c3cc(-c4cnn(C)c4)cn4ncc(C#N)c34)cn2)CC1 [Example 111, (S)-4-(6-(4-(2-(methoxymethyl)pyrrolidine-1-carbonyl)piperazin-1-yl)pyridin-3-yl)-6-(1-methyl-1H-pyrazol-4-yl)pyrazolo[1,5-a]pyridine-3-carbonitrile]"
4,117 nM,"Cn1cc(-c2cc(-c3ccc(N4CCN(C(=O)c5ccccc5)CC4)nc3)c3c(C#N)cnn3c2)cn1 [Example 69, 4-(6-(4-benzoylpiperazin-1-yl)pyridin-3-yl)-6-(1-methyl-1H-pyrazol-4-yl)pyrazolo[1,5-a]pyridine-3-carbonitrile]"
5,864 nM,"C[C@H](CO)Cn1cc(-c2cc(-c3ccc(N4CCN(C(=O)CC(C)(C)C)CC4)cc3)c3c(C#N)cnn3c2)cn1 [Example 307, (S)-4-(4-(4-(3,3-dimethylbutanoyl)piperazin-1-yl)phenyl)-6-(1-(3-hydroxy-2-methylpropyl)-1H-pyrazol-4-yl)pyrazolo[1,5-a]pyridine-3-carbonitrile]"
